PubChem BioAssay AID1963875 (Molecular Pharmacology Branch, DTP, NCI, 2024)

System: KRAS-mutant PDC complex spheroid viability
Experiment: Anticancer human tumor 186277-243-T-J2-PDC patient-derived colon adenocarcinoma cell line growth inhibition [KRAS2]
Conditions: for IC50: curve of first compound; for viability, T/C: stronger effect = lower value
How it was run: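 Combination screen of spheroid viability in tumor-cell co-cultures with endothelial (HUVEC) and mesenchymal stem cell stroma. Each agent was tested in half-log dilutions, topping at clinical Cmax or at 10 microM without a known Cmax.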

[1] = second compound 0.0316 µM, first compound 0.0316 µM
[2] = second compound 0.0316 µM, first compound 0.1 µM
[3] = second compound 0.0316 µM, first compound 0.316 µM
[4] = second compound 0.0316 µM, first compound 1 µM
[5] = second compound 0.0316 µM, first compound 3.16 µM
[6] = second compound 0.0316 µM, first compound 10 µM
[7] = second compound 0.1 µM, first compound 0.0316 µM
[8] = second compound 0.1 µM, first compound 0.1 µM
[9] = second compound 0.1 µM, first compound 0.316 µM
[10] = second compound 0.1 µM, first compound 1 µM
[11] = second compound 0.1 µM, first compound 3.16 µM
[12] = second compound 0.1 µM, first compound 10 µM
[13] = second compound 0.316 µM, first compound 0.0316 µM
[14] = second compound 0.316 µM, first compound 0.1 µM
[15] = second compound 0.316 µM, first compound 0.316 µM
[16] = second compound 0.316 µM, first compound 1 µM
[17] = second compound 0.316 µM, first compound 3.16 µM
[18] = second compound 0.316 µM, first compound 10 µM
[19] = second compound 1 µM, first compound 0.0316 µM
[20] = second compound 1 µM, first compound 0.1 µM
[21] = second compound 1 µM, first compound 0.316 µM
[22] = second compound 1 µM, first compound 1 µM
[23] = second compound 1 µM, first compound 3.16 µM
[24] = second compound 1 µM, first compound 10 µM
[25] = second compound 3.16 µM, first compound 0.0316 µM
[26] = second compound 3.16 µM, first compound 0.1 µM
[27] = second compound 3.16 µM, first compound 0.316 µM
[28] = second compound 3.16 µM, first compound 1 µM
[29] = second compound 3.16 µM, first compound 3.16 µM
[30] = second compound 3.16 µM, first compound 10 µM
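Wherever viability, T/C is given: viability read after seven days of compound exposure; 100% = DMSO vehicle-treated spheroids so lower means less viable.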

## CC1OCC2(CCN(c3cnc(Sc4ccnc(N)c4Cl)c(N)n3)CC2)C1N (stereo not given) + C=CC(=O)N1CCN(c2nc(OCC3CCCN3C)nc3c2CCN(c2cccc4cccc(C)c24)C3)CC1CC#N
Second compound 0.0316 µM
  IC50: > 10 µM
Second compound 0.1 µM
  IC50: > 10 µM
Second compound 0.316 µM
  IC50: > 10 µM
Second compound 1 µM
  IC50: > 10 µM
Second compound 3.16 µM
  IC50: < 0.0316 µM
[1]
  viability, T/C: 111%
[2]
  viability, T/C: 101%
[3]
  viability, T/C: 108%
[4]
  viability, T/C: 101%
[5]
  viability, T/C: 102%
[6]
  viability, T/C: 116%
[7]
  viability, T/C: 108%
[8]
  viability, T/C: 112%
[9]
  viability, T/C: 110%
[10]
  viability, T/C: 103%
[11]
  viability, T/C: 104%
[12]
  viability, T/C: 110%
[13]
  viability, T/C: 113%
[14]
  viability, T/C: 111%
[15]
  viability, T/C: 102%
[16]
  viability, T/C: 110%
[17]
  viability, T/C: 102%
[18]
  viability, T/C: 116%
[19]
  viability, T/C: 102%
[20]
  viability, T/C: 99.9%
[21]
  viability, T/C: 101%
[22]
  viability, T/C: 107%
[23]
  viability, T/C: 118%
[24]
  viability, T/C: 88.5%
[25]
  viability, T/C: 1.51%
[26]
  viability, T/C: 10%
[27]
  viability, T/C: 0.47%
[28]
  viability, T/C: 0.22%
[29]
  viability, T/C: 0.3%
[30]
  viability, T/C: 1.11%

## Cn1nccc1Nc1nccc(-c2cc3c(s2)C(C)(C)N(CCN2CCOCC2)C3=O)n1 + C=CC(=O)N1CCN(c2nc(OCC3CCCN3C)nc3c2CCN(c2cccc4cccc(C)c24)C3)CC1CC#N
Second compound 0.0316 µM
  IC50: 0.409 µM
Second compound 0.1 µM
  IC50: 0.456 µM
Second compound 0.316 µM
  IC50: 0.344 µM
Second compound 1 µM
  IC50: 0.388 µM
Second compound 3.16 µM
  IC50: < 0.0316 µM
[1]
  viability, T/C: 111%
[2]
  viability, T/C: 96.7%
[3]
  viability, T/C: 63%
[4]
  viability, T/C: 5.23%
[5]
  viability, T/C: 6.25%
[6]
  viability, T/C: 6.65%
[7]
  viability, T/C: 105%
[8]
  viability, T/C: 104%
[9]
  viability, T/C: 70.2%
[10]
  viability, T/C: 5.12%
[11]
  viability, T/C: 9.32%
[12]
  viability, T/C: 6.37%
[13]
  viability, T/C: 101%
[14]
  viability, T/C: 97.1%
[15]
  viability, T/C: 51.8%
[16]
  viability, T/C: 15.8%
[17]
  viability, T/C: 5.05%
[18]
  viability, T/C: 7.23%
[19]
  viability, T/C: 91%
[20]
  viability, T/C: 88.6%
[21]
  viability, T/C: 59.1%
[22]
  viability, T/C: 8.02%
[23]
  viability, T/C: 4.02%
[24]
  viability, T/C: 4.26%
[25]
  viability, T/C: 10.1%
[26]
  viability, T/C: 1.3%
[27]
  viability, T/C: 0.45%
[28]
  viability, T/C: 0.51%
[29]
  viability, T/C: 0.15%
[30]
  viability, T/C: 0.16%
